Key:
AHR = target: T1, AHR (Homo sapiens, UniProt P35869); experiment: DRE-Luciferase Reporter Assay (HepG2 AhR-Lucia reporter cells); type: cell-based; details: luciferase activity with AHR activating ligand at EC50, read-out: HepG2-Luc IC50
T1 construct: other cell line with a DRE-luciferase reporter stably transfected; endogenous in cells; host or cells: Human HepG2 liver carcinoma AhR-Lucia reporter cells
T1 sequence (P35869 11-848): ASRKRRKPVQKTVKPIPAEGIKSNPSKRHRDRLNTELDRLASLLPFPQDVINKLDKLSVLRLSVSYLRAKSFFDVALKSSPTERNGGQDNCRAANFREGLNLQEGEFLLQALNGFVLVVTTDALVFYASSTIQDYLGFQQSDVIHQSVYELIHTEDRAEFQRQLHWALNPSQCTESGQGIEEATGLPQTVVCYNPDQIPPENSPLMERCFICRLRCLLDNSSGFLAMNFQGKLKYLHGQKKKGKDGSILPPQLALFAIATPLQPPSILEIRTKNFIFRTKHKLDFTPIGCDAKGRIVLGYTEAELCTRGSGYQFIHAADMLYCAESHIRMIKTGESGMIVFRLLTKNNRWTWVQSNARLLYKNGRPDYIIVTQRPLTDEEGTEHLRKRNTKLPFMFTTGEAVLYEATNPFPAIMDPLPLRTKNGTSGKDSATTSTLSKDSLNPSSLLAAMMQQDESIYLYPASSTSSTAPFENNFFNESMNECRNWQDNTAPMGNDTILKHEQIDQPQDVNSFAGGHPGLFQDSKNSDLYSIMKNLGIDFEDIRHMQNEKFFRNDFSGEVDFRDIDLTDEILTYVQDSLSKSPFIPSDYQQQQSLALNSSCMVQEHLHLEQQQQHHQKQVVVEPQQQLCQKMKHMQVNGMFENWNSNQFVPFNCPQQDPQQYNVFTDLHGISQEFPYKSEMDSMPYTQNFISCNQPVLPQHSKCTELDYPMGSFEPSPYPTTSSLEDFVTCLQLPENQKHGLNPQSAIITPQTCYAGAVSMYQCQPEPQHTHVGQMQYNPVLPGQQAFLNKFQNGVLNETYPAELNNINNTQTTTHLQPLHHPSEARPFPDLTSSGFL
Source text: AHR binds to Dioxin Responsive Elements (DRE) upstream of genes that it activates. One measure of AHR activity is activation of a reporter gene, such as luciferase, downstream of one or multiple DRE elements. Luciferase activity will reflect activation and inhibition of AHR in the cells expressing his reporter. 20000 Human HepG2 liver carcinoma—AhR-Lucia reporter cells or Human HT29 colon adenocarcinoma—AhR reporter cells or other cell line with a DRE-luciferase reporter stably transfected were plated in Eagle's Minimal Essential Medium, 10% heat-inactivated FBS, 1× non-essential amino acids Pen-Strep (10,000 U/mL) and Normocin (100 ug/mL) in plates (96-well, 384-well or other plates) and incubated overnight at 37° C. in a CO2 incubator and treated with and without AhR antagonists at a log dilution starting at 100 uM.
After 1 hr that cells were plated an AHR activating ligand, such as TCDD, kynurenine, ITE (2-(1H-indole-3-ylcarbonyl)-4-thiazolecarboxylic methyl ester), VAF347, BNF (beta-naphthoflavone), FICZ (6-formylindolo(3,2-b) carbazole) or other AHR ligands at their specific EC50 concentration, were added to the cells with or without AHR antagonist.
Cells were incubated for 24 or 48 hours or another time point and then, supernatant was analyzed for determination of luciferase activity as a read-out of the AHR activation or inhibition. Luciferase was measured with the commercial kit QUANTI-Luc™ assay solution kit from Invivogen following the manufacturer's instructions.
The level of luciferase with only agonist ligand added was the maximum signal while the luciferase with […] was the minimum signal. IC50 values were determined as the concentration which inhibits half of the luciferase activity.

[1] = Hepatocyte Stability Assay, rat; type: in vitro ADME; details: cryopreserved hepatocytes, read-out: Rat hepatocyte clearance
Method: Preparation of working solutions: 10 mM stock solutions of test compound and positive control were prepared in DMSO. In separate conical tubes, the 10 mM solution of test compound and the positive control were diluted to 100 μM by combining 198 μL of 50% acetonitrile/50% water and 2 μL of 10 mM stock.
Preparation of Hepatocytes: Incubation medium (William's E Medium supplemented with GlutaMAX) and hepatocyte thawing medium were placed in a 37° C. water bath and allowed warming for at least 15 minutes prior to use. A vial of cryopreserved hepatocytes was transferred from storage, ensuring that vials remained at cryogenic temperatures until thawing process ensued. Cells were thawed by placing the vial in a 37° C. water bath and gently shaking the vials for 2 minutes. […] Using an AO/PI Staining, cells were counted and the viable cell density was determined. Cells with poor viability (<75% viability) were determined to be not acceptable for use. […]
Data Analysis: All calculations were carried out using Microsoft Excel. Peak areas were determined from extracted ion chromatograms. In vitro half-life (t1/2) of parent compound was determined by regression analysis of the percent parent disappearance vs. time curve.
The in vitro half-life (in vitro t1/2) was determined from the slope value: in vitro t1/2=0.693/k […]

IC50 (AHR) [nM]	CLint scaled at 1 μM [1] [mL/min/kg]	Structure (SMILES)
< 100	< 20	Cn1ncnc1C(=O)Nc1ccc2nc(-c3ccccc3C(F)(F)F)[nH]c2c1 [Compound H, 1-methyl-N-(2-(2-(trifluoromethyl)phenyl)-1H-benzo[d]imidazol-6-yl)-1H-1,2,4-triazole-5-carboxamide]
100 to 500	–	Cn1nccc1C(=O)Nc1ccc2nc(-c3ccccc3C(F)(F)F)[nH]c2c1 [A, 1-methyl-N-(2-(2-(trifluoromethyl)phenyl)-1H-benzo[d]imidazol-6-yl)-1H-pyrazole-5-carboxamide]
